From US12564609B2, “Hematopoietic stem cell engraftment with a combination of agents” (The Board of Trustees of the Leland Stanford Junior …, priority 2020, dated 2026)

How the values were obtained:
[1] = AZA in mouse model of HCL with transplantation of donor hematopoietic cells; format: in vivo, mice; conditions: AZA 5 mg/kg for 5 days followed by transplantation
Method: Wildtype and HCL mice were treated with AZA 5 mg/kg for 5 days following by transplantation of donor hematopoietic cells. % myeloid donor chimerism was assessed by flow cytometry at 4- and 16-weeks post transplantation.

[2] = tested on: hematopoietic stem and progenitor cells; experiment: In vivo depletion of blood, spleen and bone marrow cells by AZA; parameters: species or system C57BL/6 mice; conditions: AZA 5 mg/kg/d for 5 days
Method: A. Schematic of treatment protocol. C57BL/6 mice were injected with 5-Azacytidine (AZA) in dose 5 mg/kg/d for 5 consecutive days. Peripheral blood, bone marrow (BM) and spleen were analyzed on days 6, 10 and 15 and 20 after start AZA treatment. B. Peripheral blood cell counts in untreated mice as compared to AZA-treated mice at day 6, 10 and 20 following AZA treatment. Hemoglobin (Hb); white blood cells (WBC). C. Total live cells in bone marrow (BM) and spleen of untreated mice and AZA-treated mice at day 6, 10, 15 and 20 after start AZA treatment. D. Hematoxylin and eosin staining of bone marrow section from mouse femur at day 6 after treatment with AZA 5 mg/kg/d for 5 days as compared to untreated control. Magnification 100 μm. E. Representative flow cytometric analysis of the hematopoietic stem and progenitor cell (HSPC) compartment in the BM of untreated and AZA-treated mice at day 6, 10, 15 and 20. […] Lin^−Sca1^+ c-Kit^+ cells (LSK), multipotent progenitors (MPP), long-term hematopoietic stem cells (LT-HSC), short-term HSC (ST-HSC). F. Absolute number of the different HSPC compartments at day 6, 10, 15 and 20 after start of AZA treatment as compared to untreated control mice. Lin^−Sca1^+c-Kit^+ (LSK); LSKCD150^+CD48^− (LT-HSC), LSKCD150^−CD48^− (ST-HSC), LSKCD150^+CD48^+ (MPP2), LSKCD150^−CD48^+Flt3^− (MPP3), LSKCD150^−CD48^+Flt3^+ (MPP4). Data in (B), (C) and (F) represent mean±SD (n=4 per group per timepoint). Statistics were calculated with Mann-Whitney test (*P<0.05).
Mice. C57BL/6 (B6) mice (H-2^b, Thy1.1, CD45.1/CD45.2) were recipients and B6 mice (H-2^b, Thy1.1, CD45.1) were donors for the congenic transplant experiments. BALB.B (H-2^b, Thy1.2, CD45.2) mice were used as recipients and B6 mice (H-2^b, Thy1.1, CD45.1) as donors for […] (allogeneic) transplant experiments. Recipients were >8 weeks old and donors were 8-12 weeks old at timepoint of transplantation. B6 (H-2^b, Thy1.1, CD45.2) mice were used for in vivo depletion studies. Mice were bred and maintained under pathogen free conditions at the Stanford University Research Animal Facility. All experiments were performed under a protocol approved by the Stanford Administrative Panel on Laboratory Animal Care.
In vivo administration of therapeutic agents and cytokines. Anti-mouse CD117 mAbs, clone ACK2 (BioXcell) and 2B8 (BioXcell), were injected retroorbital as a single dose of 500 μg following intraperitoneal administration of Diphenhydramine (Benadryl). Anti CD4 (clone GK1.5, BioXcell) and anti-CD8 (clone YTS169.4, BioXcell) were administered intraperitoneally at a dose of 100 μg in 100 μl phosphate-buffered saline (PBS). […] Before each injection, AZA was thawed for 10-15 min at room temperature (RT), resuspended in PBS and administered intraperitoneally in 100 μl. Recombinant murine SCF (PeproTech), dissolved in deionized water to concentration of 10 μg/ml, was injected intraperitoneally at the amount of 1 μg/day.
Flow cytometry. Cells were stained for surface markers and incubated at RT in the dark for 20 min.
Bone marrow and spleen cell preparation for analysis. Mice were euthanized and bone marrow (hips, femurs, tibia, spine) and spleen were harvested. Bones were crushed in PBS+2% bovine calf serum (BCS) into single cell suspensions and filtered through 70-μm filter (Falcon). Spleens were mashed direct in 70-μm filter (Falcon). RBC lysis was performed with ACK lysis buffer for 10 min at RT. Cells were rinsed, filtered again and counted on a Countess automated cell counter (Invitrogen).
Complete blood cell count. 20 μl of whole blood was collected via the tail vein and complete blood counts (CBC) were conducted using Heska HemaTrue Veterinary Hematology Analyzer (Heska).

[3] = patients, subcutaneous administration of 75 mg/m^2 AZA, plasma; cited from earlier work

Nc1ncn([C@@H]2O[C@H](CO)[C@@H](O)[C@H]2O)c(=O)n1 [AZA, 5-Azacytidine]
therapeutic activity [1]: shows therapeutic activity
rebound of splenic myeloid cells to normal levels [2]: ≤ 10 days
recovery of BM B cells [2]: > 15 days
recovery of all blood subsets to normal range values [2]: ≤ 20 days
recovery of overall BM cellularity [2]: ≤ 10 days
recovery of the ST-HSC fraction in BM [2]: > 20 days
nadir of MPP4 and common lymphoid progenitors (CLP) ([2]; BM): 10 days
recovery of CMP and GMP ([2]; BM): > 15 days
recovery of MEP ([2]; BM): ≤ 10 days
recovery of MPP4 and CLP ([2]; BM): ≤ 20 days
myeloid-biased multipotent progenitors MPP2 and MPP3 after BM depletion of HSC ([2]; by day 6): rapid expansion
depletion of common myeloid progenitors (CMP) ([2]; by day 6, BM): > 25 fold
depletion of granulocyte-macrophage progenitors (GMP) ([2]; by day 6, BM): > 18 fold
depletion of megakaryocyte-erythrocyte progenitors (MEP) ([2]; by day 6, BM): > 11 fold
reduction of LT-HSC in BM at nadir ([2]; day 6): 15 fold
reduction of ST-HSC in BM at nadir ([2]; day 6): 24 fold
splenic myeloid cells ([2]; day 6): significantly reduced
overall BM cellularity decreased ([2]; day 6, p value=0.0286): 80 % from baseline
maximal B cell (CD19) depletion in BM ([2]; day 10): > 30 fold
B-cell development in the bone marrow (Hardy fractions) ([2]; days 6, 10, 15 and 20): maturation block at Fraction D and E
reduction of granulocytes in blood ([2]; peripheral blood): ~4 fold
day of lowest blood values (Hb, WBC, granulocytes, lymphocytes, monocytes) ([2]; days after initiation of AZA): 10 days
Cmax [3]: 750 ± 403.3 ng/mL
